Assay: Organoleptic properties (taste profile) of the amides
Excerpt: More specifically, examples of the organoleptic properties for the dienalkylamides of our invention are as follows: […]

[1] = Formula II compounds, at 10 ppm

| SMILES | Taste profile (Formula II compounds) | also measured |
| --- | --- | --- |
| CC/C=C\CC/C=C/CNC(=O)C1CC1 | – | Taste profile (Formula I compounds): Moderate Umami, off fish oily character |
| CCCCC/C=C\CC/C=C/CNC(=O)C1CC1 | – | Taste profile (Formula I compounds): Oily, moderate umami |
| CC/C=C\CC/C=C(\C)CNC(C)=O | – | Taste profile (Formula I compounds, at 10 ppm): Potent warming at 10 ppm |
| CC(C)=CCC/C(C)=C/CNC(=O)C1CC1 | Salt, MSG, Umami, mouthfeel, lasting sweetness. | – |
| CC(C)=CCC/C(C)=C\CNC(=O)C1CC1 | Salty, MSG, Umami, brothy, mouthfeel, sweetness. | – |
| CC(C)=CCC/C(C)=C/CNC(=O)C(C)C | Some salt enhancement, umami and strong MSG effect, sweet end profile | – |
| CC(C)=CCC/C(C)=C\CNC(=O)C(C)C | Salt enhancement, MSG enhancement, Umami, brothy, sweet end profile | – |
| C/C=C/C(=O)NC/C=C(\C)CCC=C(C)C | Moderate umami, salt like, lemon character. | – |
| C/C=C/C(=O)NC/C=C(/C)CCC=C(C)C | Moderate umami, some saltiness. | – |
| CC(C)=CCC/C(C)=C/CNC(=O)C=C(C)C | – | Taste profile [1]: Clean, weak umami effect at 10 ppm |
| CC(C)=CCC/C(C)=C\CNC(=O)C=C(C)C | – | Taste profile [1]: Clean, weak umami effect at 10 ppm |

Reference: US20060068071A1, “Saturated and unsaturated N-alkamides exhibiting taste and flavor enhancement effect in flavor compositions” (priority 2004, published 2006)
